Counter-ions that a name gives are not always drawn. Like-named read-outs stand apart in the source and are kept apart here.
What was measured:
Assay type in all cases: cell-based, rat
[1] = system: fibrin-induced microglia activation; experiment: Image-based assay of fibrin-induced microglia activation (HTS and dose response); conditions: for inhibition at 10 µM: read-out: Fibrin % inhibition
[2] = system: LPS-induced microglia activation; experiment: Image-based assay of LPS-induced microglia activation (HTS and dose response)
[3] = system: fibrin- and LPS-induced microglia activation; experiment: cells
[4] = Table 1, dose response 0.001-20 μM, triplicates, primary rat microglia, 48 h, read-out: Fibrin IC50
[5] = Table 1; dose response 0.001-20 μM, triplicates, primary rat microglia, 48 h; read-out: LPS IC50
[6] = quadrant by fibrin and LPS inhibition in HTS of 1907 compounds
[7] = Rattus norvegicus, Microglia, primary microglia HTS, fibrin stimulation, compounds at 10 μM
[8] = Rattus norvegicus, Microglia, primary microglia HTS, LPS stimulation, compounds at 10 μM; read-out: LPS % inhibition
[9] = quadrant by fibrin and LPS inhibition, HTS at 10 μM
[10] = Rattus norvegicus, Microglia, Table 7, read-out: fib_IC50
[11] = Rattus norvegicus, Microglia, Table 7; read-out: LPS_IC50
[12] = Table 7, fib = fibrin, LPS, tox = toxicity
[13] = Rattus norvegicus, Microglia, read-out: LPS % inhibition

Question: Which results are given for C[C@H](N)[C@H](O)c1ccccc1.Cl?
Answer: Fibrin % inhibition [1]: −15%; LPS % inhibition [2]: 7%; Quadrant (FIG. 5b) [3]: Q4

Question: With “Medroxyprogesterone [reference compound]” as the molecule, how does the IC50 [1, 4] read?
Answer: The IC50 was over 20 µM.

Question: And the IC50 ([1]; dose response, fibrin-induced microglia activation, read-out: Fibrin IC50)?
Answer: Its IC50 is over 20 µM.

Question: And the IC50 ([1]; fibrin-induced microglia activation, dose response, read-out: Fibrin IC50 (uM) (Suppl. Table 7))?
Answer: The IC50 was over 20 µM.

Question: And the Fibrin % inhibition ([1]; primary microglia HTS, fibrin stimulation, increased cell size (>800 μm^2) as marker of activation)?
Answer: Its Fibrin % inhibition is 61%.

Question: And the IC50 ([2]; LPS-induced microglia activation, dose response; read-out: LPS IC50 (uM) (Suppl. Table 7))?
Answer: The IC50 was 8 µM.

Question: And the IC50 [2, 5]?
Answer: The IC50 was 8 µM.

Question: And the IC50 ([2]; dose response, LPS-induced microglia activation; read-out: LPS IC50)?
Answer: The IC50 was 8 µM.

Question: And the LPS % inhibition ([2]; primary microglia HTS, LPS stimulation; increased cell size (>800 μm^2) as marker of activation)?
Answer: Its LPS % inhibition is 6%.

Question: What about the “Quadrant (FIG. 5b)” value ([3]; HTS of 1907 compounds, quadrant by fibrin and LPS inhibition) of the same molecule?
Answer: The value was “Q3”.

Question: And the “Quadrant (FIG. 5b)” value ([3]; Table 1, screen at 10 μM)?
Answer: Its value is “Q3”.

Question: What about the “Quadrant (FIG. 5b)” value [3, 6] of the same molecule?
Answer: The value was “Q3”.

Question: How did the inhibition at 10 µM [1, 7] turn out when Cc1nccn1CC1CCc2c(c3ccccc3n2C)C1=O (stereo not shown) [Ondansetron] was run?
Answer: Its inhibition at 10 µM is 106%.

Question: What about the inhibition at 10 µM ([1]; Rattus norvegicus, Microglia, primary microglia HTS, fibrin stimulation, increased cell size (>800 μm^2) as marker of activation) of the same molecule?
Answer: Its inhibition at 10 µM is -6%.

Question: What about the inhibition at 10 µM ([2]; Rattus norvegicus, Microglia, 48 h, primary microglia HTS, LPS stimulation; increased cell size (>800 μm^2) as marker of activation; read-out: LPS % inhibition) of the same molecule?
Answer: Its inhibition at 10 µM is 14%.

Question: What about the inhibition at 10 µM [2, 8] of the same molecule?
Answer: Its inhibition at 10 µM is 92%.

Question: What about the “Quadrant (FIG. 5b)” value [3, 6] of the same molecule?
Answer: The value was “Q4”.

Question: And the “Quadrant (FIG. 5b)” value [3, 9]?
Answer: Its value is “Q2”.

Question: C[C@@H]1CCC[C@H](C)N1NC(=O)c1ccc(Cl)c(S(N)(=O)=O)c1 [clopamide] was tested. Which IC50 [1, 10] did it give?
Answer: The IC50 was 0.003 µM.

Question: What about the IC50 [2, 11] of the same molecule?
Answer: Its IC50 is 0.002 µM.

Question: And the Activity [3, 12]?
Answer: Its Activity is “fib/LPS”.

Question: For NCCCC(O)(P(=O)(O)O)P(=O)(O)O [Alendronic acid], which inhibition at 10 µM ([1]; Rattus norvegicus, Microglia) is on record?
Answer: The inhibition at 10 µM was 5%.

Question: What about the inhibition at 10 µM [2, 13] of the same molecule?
Answer: Its inhibition at 10 µM is 18%.

Question: What about the “Quadrant (FIG. 5b)” value [3] of the same molecule?
Answer: Its value is “Q4”.

Question: How did the inhibition at 10 µM ([1]; Rattus norvegicus, Microglia) turn out when CCC[C@@H]1C[C@@H](C(=O)N[C@@H]([C@H]2O[C@H](SC)[C@H](O)[C@@H](O)[C@H]2O)[C@H](C)Cl)N(C)C1 [Clindamycin Hydrochloride] was run?
Answer: Its inhibition at 10 µM is -44%.

Question: And the inhibition at 10 µM [2, 13]?
Answer: The inhibition at 10 µM was 7%.

Question: What about the “Quadrant (FIG. 5b)” value [3] of the same molecule?
Answer: The value was “Q4”.

Question: For Cc1cc(C(C)(C)C)c(O)c(C(C)(C)C)c1, which Fibrin % inhibition ([1]; primary microglia HTS, fibrin stimulation, compounds at 10 μM) is on record?
Answer: Its Fibrin % inhibition is −4%.

Question: What about the LPS % inhibition ([2]; primary microglia HTS, LPS stimulation, compounds at 10 μM) of the same molecule?
Answer: The LPS % inhibition was 5%.

Question: And the “Quadrant (FIG. 5b)” value [3, 9]?
Answer: Its value is “Q4”.

Question: C[C@]12CC[C@H](O)CC1=CC[C@@H]1[C@@H]2CC[C@]2(C)C(=O)CC[C@@H]12 [Prasterone] was tested. Which inhibition at 10 µM ([1]; Rattus norvegicus, Microglia, primary microglia HTS, fibrin stimulation, cell size >800 μm2 as marker of activation) did it give?
Answer: The inhibition at 10 µM was 1%.

Question: And the inhibition at 10 µM ([2]; Rattus norvegicus, Microglia, 48 h; read-out: LPS % inhibition)?
Answer: Its inhibition at 10 µM is 15%.

Question: What about the “Quadrant (FIG. 5b)” value ([3]; classification by fibrin and LPS inhibition in HTS) of the same molecule?
Answer: The value was “Q4”.

Question: What does the source list for O=c1c(-c2ccccc2)coc2cc(O)cc(O)c12 [5,7-dihydroxyisoflavone]?
Answer: IC50 [1, 10]: 0.172 µM; IC50 [2, 11]: 0.021 µM; Activity [3, 12]: fib/LPS

Question: For CC(C)NCC(O)COc1cccc2ccccc12 (stereo not shown), which Fibrin % inhibition ([1]; 10 µM) is on record?
Answer: The Fibrin % inhibition was −18%.

Question: What about the inhibition at 10 µM [2, 13] of the same molecule?
Answer: Its inhibition at 10 µM is -5%.

Question: What about the “Quadrant (FIG. 5b)” value [3] of the same molecule?
Answer: The value was “Q4”.

Question: With CNCC[C@@H](Oc1ccccc1C)c1ccccc1 [Atomoxetine Hydrochloride] as the molecule, how does the inhibition at 10 µM [1, 7] read?
Answer: The inhibition at 10 µM was 15%.

Question: And the inhibition at 10 µM [2, 8]?
Answer: The inhibition at 10 µM was 7%.

Question: What about the “Quadrant (FIG. 5b)” value [3, 9] of the same molecule?
Answer: Its value is “Q4”.

Question: For O=C(O)c1nc2cc(Cl)c(Cl)cc2nc1O, which IC50 [1, 10] is on record?
Answer: The IC50 was 2.65 µM.

Question: And the IC50 [2, 11]?
Answer: Its IC50 is at least 5 µM.

Question: And the Activity [3, 12]?
Answer: The Activity was “fib/LPS”.

Question: Which fib specificity [1] does the source give for “Hydrocortisone sodium phosphate [reference compound]” here?
Answer: The fib specificity was 1.3.

Question: And the fib_HS [1]?
Answer: The fib_HS was −0.52.

Question: And the IC50 ([1]; read-out: fib_IC50)?
Answer: Its IC50 is 0.128 µM.

Question: What about the LPS specificity [2] of the same molecule?
Answer: Its LPS specificity is 0.8.

Question: And the LPS_HS [2]?
Answer: The LPS_HS was −0.69.

Question: And the IC50 ([2]; read-out: LPS_IC50)?
Answer: The IC50 was 0.161 µM.

Question: And the Activity [3]?
Answer: The Activity was “fib/LPS”.

Question: And the “Quadrant (FIG. 5b)” value [3]?
Answer: The value was “Q2”.

Question: Which results are given for O=C(O)COCCN1CCN(C(c2ccccc2)c2ccc(Cl)cc2)CC1 (stereo not shown) [Cetirizine]?
Answer: inhibition at 10 µM ([1]; Rattus norvegicus, Microglia): 5%; inhibition at 10 µM [2, 13]: 0%; Quadrant (FIG. 5b) [3]: Q4

Question: CC(C)(C(=O)O)c1ccc(C(O)CCCN2CCC(C(O)(c3ccccc3)c3ccccc3)CC2)cc1 (stereo not shown) [Fexofenadine] was tested. Which inhibition at 10 µM ([1]; Rattus norvegicus, Microglia) did it give?
Answer: The inhibition at 10 µM was 13%.

Question: What about the inhibition at 10 µM ([2]; Rattus norvegicus, Microglia, 48 h, read-out: LPS % inhibition) of the same molecule?
Answer: The inhibition at 10 µM was 14%.

Question: And the “Quadrant (FIG. 5b)” value [3]?
Answer: The value was “Q4”.

Question: For CN1CCc2cccc3c2[C@H]1Cc1ccc(O)c(O)c1-3.Cl [R(−)-Apomorphine hydrochloride, reference compound], which Fibrin % inhibition [1] is on record?
Answer: Its Fibrin % inhibition is 63%.

Question: What about the IC50 [1, 4] of the same molecule?
Answer: Its IC50 is over 20 µM.

Question: And the IC50 ([1]; read-out: Fibrin IC50)?
Answer: Its IC50 is over 20 µM.

Question: What about the IC50 ([1]; read-out: Fibrin IC50 (uM) (Suppl. Table 7)) of the same molecule?
Answer: The IC50 was over 20 µM.

Question: And the LPS % inhibition [2]?
Answer: Its LPS % inhibition is 18%.

Question: What about the IC50 [2, 5] of the same molecule?
Answer: The IC50 was 14 µM.

Question: What about the IC50 ([2]; read-out: LPS IC50) of the same molecule?
Answer: The IC50 was 14 µM.

Question: What about the IC50 ([2]; read-out: LPS IC50 (uM) (Suppl. Table 7)) of the same molecule?
Answer: The IC50 was 14 µM.

Question: And the “Cherry-picked Hit (Suppl. Table 7)” value [3]?
Answer: The value was “HIT (key: HIT: Hits were defined as molecules that exhibited greater than 50% inhibition of either fibrin or LPS activation)”.

Question: What about the Hit [3] of the same molecule?
Answer: Its Hit is “HIT (key: HIT: Hits were defined as molecules that exhibited greater than 50% inhibition of either fibrin or LPS activation)”.

Question: What about the “Quadrant (FIG. 5b)” value [3] of the same molecule?
Answer: The value was “Q3”.

Question: And the “Quadrant (FIG. 5b)” value ([3]; Table 1, screen at 10 μM)?
Answer: Its value is “Q3”.

Question: How did the inhibition at 10 µM ([1]; Rattus norvegicus, Microglia) turn out when CN1C(=O)CN=C(c2ccccc2)c2cc(Cl)ccc21 [Diazepam] was run?
Answer: Its inhibition at 10 µM is -19%.

Question: And the inhibition at 10 µM [2, 13]?
Answer: Its inhibition at 10 µM is 5%.

Question: And the “Quadrant (FIG. 5b)” value [3]?
Answer: Its value is “Q4”.

Reference: patent US20210330611A1, “THERAPY FOR NEUROLOGICAL DISEASES/DISORDERS” (priority 2020, published 2021)
